The target of test [1] is Mast/stem cell growth factor receptor Kit (Homo sapiens) (UniProt P10721). Kind of test: Inhibition of c-Kit in human PANC1 cells assessed as reduction in Erk phosphorylation at 50 uM. The format is cell-based.
In test [2] the test system is OVCAR-3. Kind of test: Cytostatic activity against human OVCAR3 cells assessed as reduction in cell proliferation. In kind it is functional, cell-based.
The test system of test [3] is SF-767. Kind of test: Cytotoxicity against human SF-767 cells assessed as cell death at 1 uM after 24 hrs by MTS assay. In kind it is functional, cell-based.
In test [4] the test system is SF-767. Kind of test: Cytotoxicity against human SF-767 cells assessed as cell death at 1 uM in presence of […] ionizing radiation after 24 hrs by MTS assay. The format is functional, cell-based. On the technique in general: Formazan colour is commonly taken as a measure of viable cells.
For test [5], the system named is MIA PaCa-2. Nature of the test: Antitumor activity against human MIAPaCa2 cells xenografted in athymic nude mouse assessed as reduction in tumor growth at 2.5 to 5 mg/kg, iv administered every 3 days for 28 days. The format is functional, organism-based. (In general: Xenograft models place foreign cells or tissue in a host animal.)
Another test has as its system TT. Kind of test: Antitumor activity against human TT cells xenografted in ip dosed athymic nude mouse assessed as reduction in tumor growth administered as qd for 2 weeks. The format is functional, organism-based.
The subject of the next test is SBcl2. Kind of test: Antitumor activity against human SBcl2 cells xenografted in ip dosed athymic nude mouse assessed as reduction in tumor growth administered as qd for 5 days. In kind it is functional, organism-based.
For test [6], the system named is MIA PaCa-2. Nature of the test: Antitumor activity against human MIAPaCa2 cells xenografted in athymic nude mouse assessed as reduction in tumor growth at 5 mg/kg, iv administered every 7 days for 28 days. The format is functional, organism-based.
Test [7] relates to OVCAR-3. Kind of test: Antitumor activity against human OVCAR3 cells xenografted in po dosed athymic nude mouse assessed as reduction in tumor growth administered as qd for 28 days. In kind it is functional, organism-based.
In test [8] the test system is A549. Nature of the test: Antitumor activity against human A549 cells xenografted in athymic nude mouse assessed as reduction in tumor growth at 50 mg/kg, po qd administered for 21 days in presence of 30 mg/kg carboplatin. In kind it is functional, organism-based.
Test [9] concerns A549. Nature of the test: Antitumor activity against human A549 cells xenografted in athymic nude mouse assessed as reduction in tumor growth at 50 mg/kg, po qd administered for 21 days in presence of 30 mg/kg carboplatin/ 20 mg/kg taxol. In kind it is functional, organism-based.
The subject of test [10] is A549. Kind of test: Suppression of Rad51 expression in human A549 cells at 0.71 to 3.82 uM after 24 hrs by probing blot analysis. The format is functional, cell-based.
The subject of test [11] is HT-29. Nature of the test: Suppression of cisplatin-induced Rad51 expression in human HT-29 cells xenografted in in-vivo model by Western blot analysis. In kind it is functional, cell-based.
Test [12] relates to HT-29. Kind of test: Suppression of ionizing radiation-induced Rad51 expression in human HT-29 cells pretreated with compound followed by ionizing radiation by Western blot analysis. The format is functional, cell-based. A general note: Immunoblotting shows a protein as a band on a membrane.
In another test the test system is Canis familiaris. Nature of the test: In vivo inhibition of Rad51 expression in po dosed Beagle dog skin administered daily for 28 days measured post last dose by immunohistochemistry staining based assay. In kind it is functional, organism-based. The conditions noted are these: Canis lupus familiaris.

Molecules are shown by their SMILES. Calls of active or inactive are those of the source. The calls are words filed in the database; no cut-off is given here.

Chain of Mast/stem cell growth factor receptor Kit (Homo sapiens) (P10721 whole entry): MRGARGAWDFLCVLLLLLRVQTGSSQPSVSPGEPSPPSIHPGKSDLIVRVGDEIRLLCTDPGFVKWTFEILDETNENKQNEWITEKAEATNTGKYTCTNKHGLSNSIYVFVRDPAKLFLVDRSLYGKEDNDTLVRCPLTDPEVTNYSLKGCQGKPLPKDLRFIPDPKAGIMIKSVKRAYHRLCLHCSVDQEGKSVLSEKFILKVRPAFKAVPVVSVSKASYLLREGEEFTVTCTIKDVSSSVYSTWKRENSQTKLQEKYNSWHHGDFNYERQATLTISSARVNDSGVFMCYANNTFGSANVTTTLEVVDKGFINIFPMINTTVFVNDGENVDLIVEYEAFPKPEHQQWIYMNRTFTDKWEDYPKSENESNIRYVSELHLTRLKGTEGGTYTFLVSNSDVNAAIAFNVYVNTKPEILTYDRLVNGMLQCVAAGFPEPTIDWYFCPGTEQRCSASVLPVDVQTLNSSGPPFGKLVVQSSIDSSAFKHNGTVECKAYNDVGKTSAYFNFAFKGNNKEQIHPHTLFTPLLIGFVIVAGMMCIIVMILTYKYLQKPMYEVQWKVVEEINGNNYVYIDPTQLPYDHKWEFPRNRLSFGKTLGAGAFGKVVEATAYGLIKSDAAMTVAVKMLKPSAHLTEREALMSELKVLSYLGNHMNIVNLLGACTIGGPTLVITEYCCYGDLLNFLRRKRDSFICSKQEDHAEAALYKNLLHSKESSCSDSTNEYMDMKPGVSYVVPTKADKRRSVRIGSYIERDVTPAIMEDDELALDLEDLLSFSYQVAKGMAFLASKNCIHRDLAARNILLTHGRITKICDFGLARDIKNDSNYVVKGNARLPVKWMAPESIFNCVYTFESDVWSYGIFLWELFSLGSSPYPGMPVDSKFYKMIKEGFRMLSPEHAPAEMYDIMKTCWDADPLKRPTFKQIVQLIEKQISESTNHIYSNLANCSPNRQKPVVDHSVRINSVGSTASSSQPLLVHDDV

Turning to `COc1cccc(-c2cc(=O)c3ccccc3o2)c1N`, in test [1], the inhibition result was “Active”.

On to `S=C(NCc1ccc2c(c1)OCO2)N1CCN(c2ncnc3c2oc2ccccc23)CC1`, for which the result with OVCAR-3 [2], in the test with SF-767 [3], in the test with SF-767 [4], in the test on MIA PaCa-2 [5], in the test on SBcl2 and in the test with MIA PaCa-2 [6] was Active. The result in the test with A549 [8] and with A549 [9] was Active. Also, the Activity entry in the test with TT and in the test with OVCAR-3 [7] was “Dose-dependent effect” each time. In addition, the inhibition result (in [1]; with HT-29 [11]; in the test on HT-29 [12]) was “Active” each time. For the same compound, the outcome with A549 [10] was inactive. Moreover, the inhibition result in the test with Canis familiaris is “Dose-dependent effect”.

The values above are taken from ChEMBL document CHEMBL3991943, “Pharmaceutical formulations comprising salts of a protein kinase inhibitor and methods of using same” (2013).
